The values below come from patent US12576093B2, “Pharmaceutical composition for subcutaneous administration” (MANNKIND CORPORATION, priority 2019, dated 2026).

Where two headings read alike, the source gives them in different places.

The conditions of series [1]: dog, in vivo, sc, 0.837 mg/kg.
For series [2] the following is noted: cited from earlier work.
For series [3] the following is noted: cited from earlier work. This is another data set of the same source.
A further series can be described thus: in vivo. The settings on record: male, Beagle, dog, sc, 0.837 mg/kg.

`CN1CCc2cccc3c2[C@H]1Cc1ccc(O)c(O)c1-3` [Apomorphine]: in series [1], the Cmax is recorded as 3.41 ng(mL. Besides, the Solubility result in series [2] (in Toluene (wrapped cell r23-r24: practically insoluble)) is listed as “insoluble in Toluene”; in series [2] (in alcohol (wrapped cell r19-r20: sparingly soluble in water and in alcohol)), “Sparingly soluble in water”; in series [2] (in chloroform (wrapped cell r21-r22: very slightly soluble)), “water at 80°; very slightly”; in series [2] (in ether (wrapped cell r21-r23: very slightly soluble)), “water at 80°; very slightly”; in series [2] (in water) it was “Sparingly soluble in water”. In addition, the Stability result is “acquires a green color on” in series [3] (exposure to light and air (wrapped cell r15-r17: gradually acquires a green color)); “Stable under recommended” in series [3] (recommended storage conditions (protect from light)). For the same compound, in the series “in vivo” (AUClast), the AUC(0-t) (as a rule, the area under the concentration-time curve up to a stated or last time point) is 82.9 ng·h/mL. The mean residence time MRT last (as a rule, a mean duration of stay, worked out from the concentration-time curve) in the series “in vivo” (MRTlast) was 24.4 h. In addition, the tmax in the series “in vivo” (Tmax) came out at 30 h.
